One compound from publication PMC7312435, “Direct inhibition of the TLR4/MyD88 pathway by geniposide suppresses HIF‐1α‐independent VEGF expression and angiogenesis in hepatocellular carcinoma” (British Journal of Pharmacology, 2020) can be followed below.

Molecules are shown by their SMILES.

For the test, the target named is T1, recombinant human TLR4 (Homo sapiens, UniProt O00206).
T1 construct: amine-coupled to CM5 chip
As to the kind of experiment: surface plasmon resonance (Biacore X100), steady-state fit. The settings on record: PBS with 0.05% Triton X-100, pH 7.4; geniposide 0-12.8 uM; TLR4 immobilised on CM5 chip (1,300 RU). In kind it is binding.

T1 sequence (O00206 24-839): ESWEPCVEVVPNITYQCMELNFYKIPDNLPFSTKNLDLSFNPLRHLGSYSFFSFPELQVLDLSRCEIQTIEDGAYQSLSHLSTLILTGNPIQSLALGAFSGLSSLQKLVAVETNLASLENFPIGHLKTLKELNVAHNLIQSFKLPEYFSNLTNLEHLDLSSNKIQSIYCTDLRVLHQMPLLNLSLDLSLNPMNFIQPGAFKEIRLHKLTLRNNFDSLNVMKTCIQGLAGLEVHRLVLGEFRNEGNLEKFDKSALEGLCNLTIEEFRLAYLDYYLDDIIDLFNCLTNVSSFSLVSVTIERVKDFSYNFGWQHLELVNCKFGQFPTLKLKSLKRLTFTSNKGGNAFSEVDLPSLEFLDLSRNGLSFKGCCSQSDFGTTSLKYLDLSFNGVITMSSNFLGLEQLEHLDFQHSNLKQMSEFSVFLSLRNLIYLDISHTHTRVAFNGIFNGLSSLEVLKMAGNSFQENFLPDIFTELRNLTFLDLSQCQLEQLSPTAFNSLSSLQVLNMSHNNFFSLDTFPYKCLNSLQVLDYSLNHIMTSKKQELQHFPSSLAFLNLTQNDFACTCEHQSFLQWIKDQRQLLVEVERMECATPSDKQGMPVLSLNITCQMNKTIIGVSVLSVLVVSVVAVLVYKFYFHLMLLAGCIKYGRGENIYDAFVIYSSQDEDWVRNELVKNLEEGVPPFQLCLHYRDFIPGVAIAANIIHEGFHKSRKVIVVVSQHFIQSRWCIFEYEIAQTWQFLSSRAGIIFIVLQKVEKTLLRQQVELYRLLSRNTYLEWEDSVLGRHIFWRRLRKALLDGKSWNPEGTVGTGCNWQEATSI

As to `COC(=O)C1=CO[C@@H](O[C@@H]2O[C@H](CO)[C@@H](O)[C@H](O)[C@H]2O)[C@@H]2C(CO)=CC[C@H]12` [geniposide], the “K D” value is reported as 6.716e^−6 M.
